EC50 data for 30 compounds are collected here from US9006241B2, “Pyrimidine derivatives” (Noviga Research AB, priority 2011, dated 2015).

Molecules are shown by their SMILES. pEC50: −log10 of the molar value. Where only a bound is given, the exact number is not on record here.

In the experiment the test system is CCRF-CEM cancer cells - leukemia. The experiment in a line: Fluorometric Microculture Cytotoxicity Assay (FMCA), CCRF-CEM. Type of experiment: cell-based. Particulars: Homo sapiens, 72 h incubation. From the text:
The Fluorometric Microculture Cytotoxicity Assay, FMCA (Larsson, R., et al.; Anticancer Res, 1989, 9, 1111-1119), is a three day non-clonogenic microplate-based cell viability assay used for measurement of the cytotoxic and/or cytostatic effect of compounds in vitro (Lindhagen, E. et al.; Nat. Protoc., 2008, 3, 1364-1369). FMCA represents a valuable method to measure cytotoxicity in a number of cell types, both cell lines and primary cells from patients (Larsson, R., et al.; Int. J. Cancer, 1992, 50, 177-185; Fridborg, H., et al.; Eur. J. Cancer, 1999. 35, 424-432; Dhar, S., et al.; Br. J. Cancer, 1996, 74, 888-896).
FMCA is based on the principle that fluorescein diacetate (FDA) is converted to the fluorescent probe fluorescein by esterases in the plasma membranes of living cells. For experiments, 96 or 384-well microplates are prepared with compounds and stored at −70° C. until use. Cells are then seeded into the drug-prepared plates and placed in an incubator for 72 h. On the last day of incubation, the plates are washed and a buffer containing FDA is added and incubated with the cells for 45 minutes. Finally the fluorescence per well is measured in a fluorometer and a Survival Index % (SI) for each compound-treated well is calculated with the equation: Compound-treated cells minus blank divided by control cells minus blank. A high SI-value indicates a large percentage of living cells and vice versa.
In subsequent experiments, compounds were tested, along with a number of approved cancer drugs (dasatinib, pazopanib, sorafenib, and sunitinib) as described above. Initially, the acute lymphoblastic leukemia cell line CCRF-CEM was used throughout. In the assay plates, medium was added to six empty wells (blank wells) and wells were filled with PBS and cell suspension and served as control wells. SI-values were then calculated for each compound-treated well as described above. All experiments were conducted twice and a new batch of plates was prepared for each experiment.
For dose-response experiments, 384-well plates were prepared as follows:
Compounds of the invention as well comparative kinase inhibitors sorafenib sunitinib, dasatinib, pazopanib and a reference compound disclosed in WO 2009/071535 (compound #107) were diluted with PBS to a concentration ten-times higher than the desired starting concentration. Then, a Biomek 2000 liquid handling system was employed to serially dilute the compounds in a deep-well 384-well plate. From this plate, assay plates containing 5 μl compound per well were prepared with the Biomek 2000. Certain compounds precipitated when diluted with PBS, and these compounds were therefore prepared in a 96-well plate manually as described above using culture medium RPMI 1640 instead of PBS.
The compounds were also tested at five concentrations, with five times serial dilution on the following cell types: CCRF-CEM, hTERT-RPE1 (normal retinal epithelial cells), hRPTEpiC (normal renal cells), and peripheral blood mononuclear cells (PBMC). Each experiment was performed three times, except for PBMC and hRPTEpiC, which were performed twice. SI-values were calculated, graphs were plotted using GraphPadPrism 5.0 (GraphPad Software Inc. La Jolla, Calif.) and IC50-values for each cell type and compound were determined from the curves.

For orientation: pEC50 means the negative decadic logarithm of the EC50, by convention in mol/L. Read a high pEC50 as a small EC50. Regarding `COc1cc2[nH]cc(CCNc3nccc(Nc4ccc5[nH]c(C)cc5c4)n3)c2cc1OC` [Example 50, N^2-[2-(5,6-dimethoxy-1H-indol-3-yl)ethyl]-N^4-(2-methyl-1H-indol-5-yl)pyrimidine-2,4-diamine], the pEC50 was 6.74.
The value for `COc1ccc2[nH]cc(CCNc3ncc(C)c(Nc4ccc5[nH]c(C)cc5c4)n3)c2c1` [Example 29, N^2-[2-(5-methoxy-1H-indol-3-yl)ethyl]-5-methyl-N^4-(2-methyl-1H-indol-5-yl)pyrimidine-2,4-diamine] was 7.24.
Compound `CCOc1ccc2[nH]cc(CCNc3nccc(Nc4cccc5[nH]c(C)nc45)n3)c2c1` [Example 83, N^2-[2-(5-ethoxy-1H-indol-3-yl)ethyl]-N^4-(2-methyl-1H-benzimidazol-4-yl)pyrimidine-2,4-diamine] gave a pEC50 above 6.00.
Next, `CCOc1ccc2[nH]cc(CCNc3ncc(N)c(Nc4ccc5[nH]c(C)cc5c4)n3)c2c1` [Example 90, N^2-[2-(5-ethoxy-1H-indol-3-yl)ethyl]-N^4-(2-methyl-1H-indol-5-yl)pyrimidine-2,4,5-triamine]: above 7.00; `CCOc1ccc2[nH]cc(CCNc3nc(C)cc(Nc4ccc5[nH]c(C)cc5c4)n3)c2c1` [Example 55, N^2-[2-(5-ethoxy-1H-indol-3-yl)ethyl]-6-methyl-N^4-(2-methyl-1H-indol-5-yl)pyrimidine-2,4-diamine]: 7.28.
The value for `COc1ccc2[nH]cc(CCNc3nccc(Nc4ccc5ccn(C)c5c4)n3)c2c1` [Example 75, N^2-[2-(5-methoxy-1H-indol-3-yl)ethyl]-N^4-(1-methylindol-6-yl)pyrimidine-2,4-diamine] was above 6.00.
Next, `COc1ccc2[nH]cc(CCNc3nc(Nc4ccc5[nH]c(C)cc5c4)cc(C(N)=O)n3)c2c1` [Example 28, 2-[2-(5-methoxy-1H-indol-3-yl)ethylamino]-6-(2-methyl-1H-indol-5-ylamino)pyrimidine-4-carboxamide]: 7.24.
`COc1ccc2[nH]cc(CCNc3nccc(Nc4ccc5[nH]cnc5c4)n3)c2c1` [Example 18, N^4-(1H-benzo[d]imidazol-5-yl)-N^2-[2-(5-methoxy-1H-indol-3-yl)ethyl]pyrimidine-2,4-diamine] had a pEC50 of 6.38.
Next, `COc1ccc2[nH]cc(CCNc3nccc(Nc4ccc5[nH]c(C(=O)OCCO)cc5c4)n3)c2c1` [Example 17, 2-hydroxyethyl 5-{2-[2-(5-methoxy-1H-indol-3-yl)ethylamino]pyrimidin-4-ylamino}-1H-indole-2-carboxylate]: 5.85.
The value for `COc1ccc2[nH]cc(CCNc3nc(C)cc(Nc4ccc5[nH]c(C)nc5c4)n3)c2c1` [Example 57, N^2-[2-(5-methoxy-1H-indol-3-yl)ethyl]-6-methyl-N^4-(2-methyl-1H-benzo[d]imidazol-5-yl)pyrimidine-2,4-diamine] was 6.64; that for `COc1ccc2[nH]cc(CCNc3nccc(Nc4ccc5c(c4)nc(CO)n5C)n3)c2c1` [Example 60, (5-{2-[2-(5-methoxy-1H-indol-3-yl)ethylamino]pyrimidin-4-ylamino}-1-methyl-1H-benzo[d]imidazol-2-yl)methanol] was 6.68.
The value for `COc1cccc2[nH]cc(CCNc3nccc(Nc4ccc5[nH]c(C)cc5c4)n3)c12` [Example 47, N^2-[2-(4-methoxy-1H-indol-3-yl)ethyl]-N^4-(2-methyl-1H-indol-5-yl)pyrimidine-2,4-diamine] was 6.48; that for `c1ccc2c(CCNc3nccc(Nc4ccc5[nH]ccc5c4)n3)c[nH]c2c1` [Example 1, N^2-[2-(1H-indol-3-yl)ethyl]-N^4-(1H-indol-5-yl)pyrimidine-2,4-diamine] was 5.39; that for `c1ccc2c(CCNc3ccnc(Nc4cccc5[nH]ccc45)n3)c[nH]c2c1` [Example 25, N^4-[2-(1H-indol-3-yl)ethyl]-N^2-(1H-indol-4-yl)pyrimidine-2,4-diamine] was 5.00 to 6.00.
As to `COc1ccc2[nH]cc(CCNc3nccc(Nc4cccc5[nH]c(C)nc45)n3)c2c1` [Example 82, N^2-[2-(5-methoxy-1H-indol-3-yl)ethyl]-N^4-(2-methyl-1H-benzimidazol-4-yl)pyrimidine-2,4-diamine], the negative logarithm of the EC50 (pEC50) was above 6.00.
Next, `Cc1cc(Nc2ccc3[nH]c(C)cc3c2)nc(NCCc2c[nH]c3ccccc23)n1` [Example 26, N^2-[2-(1H-indol-3-yl)ethyl]-6-methyl-N^4-(2-methyl-1H-indol-5-yl)pyrimidine-2,4-diamine]: 6.19; `CCOc1ccc2[nH]cc(CCNc3nccc(Nc4cccc5[nH]c(C)cc45)n3)c2c1` [Example 78, N^2-[2-(5-ethoxy-1H-indol-3-yl)ethyl]-N^4-(2-methyl-1H-indol-4-yl)pyrimidine-2,4-diamine]: above 7.00.
Next, `CCOc1ccc2[nH]cc(CCNc3nccc(Nc4ccc5[nH]c(CO)cc5c4)n3)c2c1` [Example 72, [5-({2-[2-(5-ethoxy-1H-indol-3-yl)ethylamino]pyrimidin-4-yl}amino)-1H-indol-2-yl]methanol]: above 7.00; `COc1ccc2[nH]cc(CCNc3nccc(Nc4cccc5[nH]ccc45)n3)c2c1` [Example 21, N^4-(1H-indol-4-yl)-N^2-[2-(5-methoxy-1H-indol-3-yl)ethyl]pyrimidine-2,4-diamine]: 7.23; `COc1ccc2[nH]cc(CCNc3nccc(Nc4cccc5c4ccn5C)n3)c2c1` [Example 54, N^2-[2-(5-methoxy-1H-indol-3-yl)ethyl]-N^4-(1-methyl-1H-indol-4-yl)pyrimidine-2,4-diamine]: 8.55.
Next, `COc1cc(C)c2[nH]cc(CCNc3nccc(Nc4ccc5[nH]c(C)cc5c4)n3)c2c1` [Example 51, N^2-[2-(5-methoxy-7-methyl-1H-indol-3-yl)ethyl]-N^4-(2-methyl-1H-indol-5-yl)pyrimidine-2,4-diamine]: 7.12; `CNC(=O)c1cc(Oc2ccc(NC(=O)Nc3ccc(Cl)c(C(F)(F)F)c3)cc2)ccn1` [Ref. 1, sorafenib, reference compound]: 5.08.
Regarding `COc1ccc2[nH]cc(CCNc3nccc(Nc4ccc5cc[nH]c5c4)n3)c2c1` [Example 20, N^4-(1H-indol-6-yl)-N^2-[2-(5-methoxy-1H-indol-3-yl)ethyl]pyrimidine-2,4-diamine], the pEC50 was 6.85.
For the compound `CCCOc1ccc2[nH]cc(CCNc3nccc(Nc4ccc5[nH]c(C)cc5c4)n3)c2c1` [Example 48, N^4-(2-methyl-1H-indol-5-yl)-N^2-[2-(5-propoxy-1H-indol-3-yl)ethyl]pyrimidine-2,4-diamine], the negative-log EC50 (pEC50) is 5.89. This pEC50 is 0.96 log units lower than that of the compound before.
Next, `Cc1cc2cc(Nc3ccnc(NCCc4c[nH]c5ccccc45)n3)ccc2[nH]1` [Example 3, N^2-[2-(1H-indol-3-yl)ethyl]-N^4-(2-methyl-1H-indol-5-yl)pyrimidine-2,4-diamine]: 6.54.
`CCOc1ccc2[nH]cc(CCNc3nccc(Nc4cccc5c4ccn5C)n3)c2c1` [Example 80, N^2-[2-(5-ethoxy-1H-indol-3-yl)ethyl]-N^4-(1-methylindol-4-yl)pyrimidine-2,4-diamine] showed a negative logarithm of the EC50 (pEC50) above 7.00.
Next, `COc1ccc2[nH]cc(CCNc3nccc(N(C)c4ccc5c(c4)cc(C)n5C)n3)c2c1` [Example 62, N^4-(1,2-dimethyl-1H-indol-5-yl)-N^2-[2-(5-methoxy-1H-indol-3-yl)ethyl]-N^4-methylpyrimidine-2,4-diamine]: 5.00 to 6.00; `CCOc1ccc2[nH]cc(CCNc3nc(Nc4cccc5c4ccn5C)cc(C(N)=O)n3)c2c1` [Example 88, 2-[2-(5-ethoxy-1H-indol-3-yl)ethylamino]-6-[(1-methylindol-4-yl)amino]pyrimidine-4-carboxamide]: above 7.00.
In the case of `CCOc1ccc2[nH]cc(CCNc3nccc(Nc4ccc5cc(C)[nH]c5c4)n3)c2c1` [Example 74, N^2-[2-(5-ethoxy-1H-indol-3-yl)ethyl]-N^4-(2-methyl-1H-indol-6-yl)pyrimidine-2,4-diamine], the negative logarithm of the EC50 (pEC50) was above 7.00.
The value for `COc1cccc2c(CCNc3nccc(Nc4ccc5[nH]c(C)cc5c4)n3)c[nH]c12` [Example 12, N^2-[2-(7-methoxy-1H-indol-3-yl)ethyl]-N^4-(2-methyl-1H-indol-5-yl)pyrimidine-2,4-diamine] was 6.89.
